In ChEMBL document CHEMBL1201862, “PubChem BioAssay data set” (2004):
Structures can show the parent of a compound that is named as a salt. Active and inactive are the calls of the source.

Columns and labels:
Cytochrome P450 2C19 = Cytochrome P450 2C19 (Homo sapiens, UniProt P33261); test: Cytochrome panel assay with activity outcomes. Panel member name: p450-cyp2c19 Compounds with AC50 equal or less than 10 uM are considered active; format: functional; conditions: read-out: AC50
fMet-Leu-Phe receptor = target: T1, fMet-Leu-Phe receptor (Homo sapiens, UniProt P21462); test: formyl peptide receptor binders – dose response (AID 519); format: functional
T1 sequence (P21462 whole entry): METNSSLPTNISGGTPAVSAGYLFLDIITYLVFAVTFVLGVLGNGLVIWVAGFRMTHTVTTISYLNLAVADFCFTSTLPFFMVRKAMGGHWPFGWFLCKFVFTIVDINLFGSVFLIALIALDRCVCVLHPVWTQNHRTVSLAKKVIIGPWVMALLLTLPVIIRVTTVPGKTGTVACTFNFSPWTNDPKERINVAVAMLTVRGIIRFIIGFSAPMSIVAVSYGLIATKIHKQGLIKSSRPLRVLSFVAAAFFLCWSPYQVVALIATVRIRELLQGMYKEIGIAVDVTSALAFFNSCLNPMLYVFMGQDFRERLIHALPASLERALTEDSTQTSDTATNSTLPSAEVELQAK

[1] = HIV-1 AD8 envelope cell-cell fusion blockers – cherry-pick, dose response (AID 652062); format: functional, cell-based;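 also: luciferase signal from cell-cell fusion driven by HIV-1 clade B AD8 Env; potency is for inhibitors of fusion seen as a drop in luminescence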
[2] = blockers of HIV-1 envelope-mediated cell-cell fusion – cherry-pick, dose response (AID 652057); format: functional, cell-based
[3] = blockers of HIV-1 ZM109 envelope-driven cell-cell fusion – HeLa effector, CEM target cells, luciferase, cherry-pick, dose response (AID 652058); format: functional, cell-based;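 also: luciferase signal from HIV-1 Env mediated cell-cell fusion of effector and target cells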
[4] = viability loss in CEM21 cells – cell-based, CellTiter-Glo luminescence, cherry-picked, cytotoxicity control for viral fusion inhibitor project, dose response (AID 652042); format: functional;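 also: potency for signal decrease meaning cytotoxicity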
[5] = A2780 cell killing – plate reader, dry powder samples, cytotoxicity control, dose response (AID 743046); format: functional, cell-based
Paired box protein Pax-8 = Paired box protein Pax-8 (Homo sapiens, UniProt Q06710); test: PAX8 transcriptional activity inhibition in RMG-I – RMG-I cells, luciferase, cherry-pick, dose response (AID 687027); format: functional, cell-based;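 also: luciferase reporter driven by Pax8 target thyroperoxidase promoter measured by SteadyGlo luminescence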
[6] = OVCAR8 cell viability loss – plate reader, dry powder samples, PAX8 project, dose response (AID 743197); format: functional, cell-based; conditions: OVCAR-8
[7] = OVCAR-3 cell viability loss – plate reader, dry powder samples, PAX8 inhibitor project, dose response (AID 743044); format: functional, cell-based
[8] = IGROV1 cell killing – plate reader, dry powder samples, PAX8 inhibitor project, dose response (AID 743043); format: functional, cell-based; conditions: IGROV-1
[9] = toxicity to human hepatoma HepG2 cells – cell-based, cherry-picked samples, cytotoxicity control, dose response (AID 1159577); format: functional
[10] = toxicity toward immortalized ovarian surface epithelium – cell-based, plate reader, dry powder samples, cytotoxicity control for PAX8 inhibitor project, dose response (AID 743045); format: functional
[11] = P. falciparum Dd2 growth inhibitors, dose response, SYBR Green, cherry-picked samples (AID 1159567); format: functional, cell-based
[12] = target: T2, Fructose-bisphosphate aldolase (Mycobacterium tuberculosis, UniProt P9WQA3); test: Fluorescence-based biochemical high throughput dose response assay for inhibitors of the fructose-bisphosphate aldolase (FBA) of M. tuberculosis.; format: functional
T2 sequence (P9WQA3 whole entry): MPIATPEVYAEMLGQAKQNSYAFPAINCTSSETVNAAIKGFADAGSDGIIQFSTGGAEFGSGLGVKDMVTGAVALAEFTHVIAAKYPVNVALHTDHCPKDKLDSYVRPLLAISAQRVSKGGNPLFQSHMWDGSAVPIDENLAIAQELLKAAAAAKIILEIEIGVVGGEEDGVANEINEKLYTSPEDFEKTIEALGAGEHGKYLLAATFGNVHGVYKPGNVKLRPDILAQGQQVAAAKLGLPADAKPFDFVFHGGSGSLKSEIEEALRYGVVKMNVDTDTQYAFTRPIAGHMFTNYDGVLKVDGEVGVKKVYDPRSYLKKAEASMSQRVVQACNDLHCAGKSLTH

[13] = IC50 of Artemis nuclease activity blockers – biochemical, fluorescence intensity, dose response (AID 720701); format: functional;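 also: Artemis endonuclease enzyme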
[14] = target: T3, RNA-editing ligase 1, mitochondrial (Trypanosoma brucei brucei, UniProt P86926); test: inhibition of trypanosome RNA editing ligase – biochemical, fluorescence, Trypanosoma brucei, dose response (AID 1117295); format: functional
T3 sequence (P86926 whole entry): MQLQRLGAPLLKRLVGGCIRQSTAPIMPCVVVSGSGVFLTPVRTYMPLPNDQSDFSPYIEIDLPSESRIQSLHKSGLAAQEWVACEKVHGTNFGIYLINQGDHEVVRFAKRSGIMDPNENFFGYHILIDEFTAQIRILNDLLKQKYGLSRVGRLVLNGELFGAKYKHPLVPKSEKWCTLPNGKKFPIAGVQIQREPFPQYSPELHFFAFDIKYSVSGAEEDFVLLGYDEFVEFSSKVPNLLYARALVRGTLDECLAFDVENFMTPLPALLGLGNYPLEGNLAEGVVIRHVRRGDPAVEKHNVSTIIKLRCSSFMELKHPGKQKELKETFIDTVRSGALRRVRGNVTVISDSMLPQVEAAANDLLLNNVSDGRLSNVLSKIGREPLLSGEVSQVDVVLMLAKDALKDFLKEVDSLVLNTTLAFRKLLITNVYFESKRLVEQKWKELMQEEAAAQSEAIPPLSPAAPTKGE

[15] = IC50 of insulin release inhibition, rat insulinoma INS-1E line, 5 mM glucose, cell-based (AID 1117331); format: functional
[16] = rise of 2N DNA cells, HeLa – IC50, dose response (AID 1117349); format: functional, cell-based
cells = format: functional, cell-based; conditions: INS-1E
[17] = rise of 4N DNA cells, HeLa – IC50, dose response (AID 1117351); format: functional, cell-based
Cytochrome P450 1A2 = target: T4, Cytochrome P450 1A2 (Homo sapiens, UniProt P05177);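 also: PubChem cytochrome P450 panel assay, CYP1A2 panel member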
T4 sequence (P05177 whole entry): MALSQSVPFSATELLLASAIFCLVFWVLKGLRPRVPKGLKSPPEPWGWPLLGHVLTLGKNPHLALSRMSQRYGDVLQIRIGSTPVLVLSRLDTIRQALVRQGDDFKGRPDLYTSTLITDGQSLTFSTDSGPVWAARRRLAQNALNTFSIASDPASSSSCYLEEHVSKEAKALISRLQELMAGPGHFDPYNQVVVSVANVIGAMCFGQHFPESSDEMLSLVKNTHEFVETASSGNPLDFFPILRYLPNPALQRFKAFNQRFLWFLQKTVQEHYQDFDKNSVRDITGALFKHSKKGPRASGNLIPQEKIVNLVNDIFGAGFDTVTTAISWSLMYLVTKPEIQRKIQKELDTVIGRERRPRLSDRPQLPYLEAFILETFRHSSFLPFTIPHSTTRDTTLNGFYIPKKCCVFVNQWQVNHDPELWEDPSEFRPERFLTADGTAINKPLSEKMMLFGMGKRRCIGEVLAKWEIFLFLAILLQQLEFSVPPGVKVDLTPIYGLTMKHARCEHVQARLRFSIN

Paired box protein Pax-8, sequence (Q06710 whole entry): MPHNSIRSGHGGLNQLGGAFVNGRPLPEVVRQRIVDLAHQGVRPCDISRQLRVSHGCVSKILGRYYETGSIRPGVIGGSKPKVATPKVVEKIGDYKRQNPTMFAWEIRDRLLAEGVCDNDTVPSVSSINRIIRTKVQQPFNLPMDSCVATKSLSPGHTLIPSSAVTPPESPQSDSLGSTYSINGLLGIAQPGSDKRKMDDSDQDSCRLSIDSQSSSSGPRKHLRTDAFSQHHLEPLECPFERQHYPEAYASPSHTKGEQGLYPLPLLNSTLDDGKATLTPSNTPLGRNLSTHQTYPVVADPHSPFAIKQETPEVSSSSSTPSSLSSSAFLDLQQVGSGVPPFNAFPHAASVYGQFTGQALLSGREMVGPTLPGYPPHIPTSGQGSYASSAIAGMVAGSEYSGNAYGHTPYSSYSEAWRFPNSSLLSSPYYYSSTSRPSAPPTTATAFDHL
Cytochrome P450 2C19, sequence (P33261 whole entry): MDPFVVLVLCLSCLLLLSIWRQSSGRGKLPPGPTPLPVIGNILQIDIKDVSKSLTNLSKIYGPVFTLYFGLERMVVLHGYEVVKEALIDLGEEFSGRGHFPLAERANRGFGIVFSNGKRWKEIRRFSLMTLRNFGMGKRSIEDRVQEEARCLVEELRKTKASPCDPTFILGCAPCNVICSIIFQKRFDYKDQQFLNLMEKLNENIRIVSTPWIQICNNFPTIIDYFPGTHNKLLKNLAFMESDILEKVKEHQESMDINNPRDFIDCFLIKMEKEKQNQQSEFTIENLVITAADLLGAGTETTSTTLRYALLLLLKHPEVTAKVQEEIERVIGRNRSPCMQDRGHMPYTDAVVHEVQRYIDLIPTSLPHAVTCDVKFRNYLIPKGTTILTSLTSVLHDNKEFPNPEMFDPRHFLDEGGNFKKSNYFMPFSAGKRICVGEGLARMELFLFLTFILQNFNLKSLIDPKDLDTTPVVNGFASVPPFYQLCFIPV

Compound: COc1ccc(C2C(C(=O)c3ccccc3)=C(O)C(=O)N2CC(C)O)c(OC)c1 (stereo not drawn)
- AC50 (Cytochrome P450 2C19): 6.31 µM (inconclusive)
- Ki (fMet-Leu-Phe receptor): 38.6 µM (inactive)

Compound: COc1cccc(S(=O)(=O)N(C)C[C@H]2Oc3cc(C4=CCCC4)ccc3S(=O)(=O)N([C@@H](C)CO)C[C@H]2C)c1
- AC50 [1]: 3.01 µM (active)
- AC50 [2]: 1.87 µM (active)
- AC50 [3]: 1.62 µM (active)
- AC50 [4]: 64.2 µM (active)

Compound: C[C@@H]1CCCCO[C@H](CN(C)C(=O)C2CCCCC2)[C@H](C)CN([C@@H](C)CO)C(=O)c2cc(NS(=O)(=O)c3ccc(Cl)cc3)ccc2O1
- AC50 [5]: 43.4 µM (active)
- AC50 (Paired box protein Pax-8): 10.8 µM (active)
- AC50 [6]: 56.9 µM (active)
- AC50 [7]: 45.3 µM (active)

Compound: O=C(Nc1ccc(F)cc1)N1CCCCN2[C@@H](CO)[C@@H](c3ccc(C#Cc4ccccc4)cc3)[C@@H]2C1
- AC50 [8]: 21 µM (active)
- AC50 [9]: 7.97 µM (active)
- AC50 (Paired box protein Pax-8): 18.7 µM (active)
- AC50 [10]: 55.1 µM (active)
- AC50 [11]: 2.61 µM (active)
- AC50 [7]: 19.2 µM (active)

Compound: COc1ccc2c(CN3CCCC3)cc(=O)oc2c1
- IC50 [12]: 2.52 µM (active)

Compound: O=[N+]([O-])c1ccccc1/C=C/C=N/n1c(S)nnc1-c1ccc(Cl)cc1
- IC50 [13]: > 20 µM (inactive)

Compound: CN(C)CC(=O)N1C[C@@H]2N[C@H](C1)[C@H]2c1ccc(/C=C/c2ccccc2)cc1
- AC50 [9]: 11.4 µM (active)
- AC50 [11]: 2.63 µM (active)

Compound: COC(=O)C1=C(C)N(Cc2ccc(C(F)(F)F)cc2)C(NCc2ccccc2C(F)(F)F)=NC1c1ccccc1C(F)(F)F (stereo not drawn)
- IC50 [14]: > 96.6 µM (inactive)

Compound: COC(=O)C1=C(C)N(Cc2ccc(C(F)(F)F)cc2)C(NCc2ccccc2C(F)(F)F)=NC1c1ccccc1 (stereo not drawn)
- IC50 [14]: > 96.6 µM (inactive)

Compound: COCC(=O)N1CCC2(CC1)CN(Cc1ccccc1F)[C@H](CO)c1[nH]c3cc(OC)ccc3c12
- AC50 [9]: > 39 µM (inactive)
- AC50 [11]: 7.02 µM (active)

Compound: CN(C)CCC=C1c2ccccc2CCc2ccccc21 [AMITRIPTYLINE HYDROCHLORIDE]
- IC50 [15]: 3 µM (active)
- IC50 [16]: > 10 µM (inactive)
- IC50 (cells): > 33.3 µM (inactive)
- IC50 [17]: > 10 µM (inactive)

Compound: CN(C)CCN(Cc1ccc(Cl)cc1)c1ccccn1 [CHLOROPYRAMINE]
- IC50 [15]: 6.14 µM (inactive)
- IC50 (cells): 16.8 µM (inactive)
- AC50 (Cytochrome P450 1A2): 12.6 µM (inconclusive)

Compound: CCCCN1CCCC[C@H]1C(=O)Nc1c(C)cccc1C [LEVOBUPIVACAINE HYDROCHLORIDE]
- IC50 [15]: 27.2 µM (inactive)
- IC50 (cells): > 33.3 µM (inactive)
